ChEMBL document CHEMBL1201862, “PubChem BioAssay data set” (2004)
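Following 48 hours of exposure in 96-well plates, responses at five concentrations were used to interpolate endpoints linearly. The concentration for 50% growth inhibition is given as GI50.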 Active and inactive are the calls of the source. No stated cut-off is given here; in the data, active = GI50 up to about 1.1 µM and inactive = higher.

Columns and labels:
Assay in all cases: NCI anticancer screen, dose series, 48 h
SF-539 = test system: SF-539
HOP-62 = test system: HOP-62
KM12 = test system: KM12
EKVX = test system: EKVX
M14 = test system: M14
A549 = test system: A549
K562 = test system: K562
SNB-19 = test system: SNB-19
NCI-H226 = test system: NCI-H226
MOLT-4 = test system: MOLT-4
HCC 2998 = test system: HCC 2998
RXF 393 = test system: RXF 393
OVCAR-3 = test system: OVCAR-3
RPMI-8226 = test system: RPMI-8226
SK-OV-3 = test system: SK-OV-3
SK-MEL-5 = test system: SK-MEL-5
U-251 = test system: U-251
MCF7 = test system: MCF7
NCI/ADR-RES = test system: NCI/ADR-RES

Measured: GI50

COc1ccc2c(c1)CCc1c-2nc2cc3c(cc2c1O)OCO3
inactive: SF-539 > 100 µM | HOP-62 > 100 µM | KM12 > 100 µM | EKVX > 100 µM | M14 > 100 µM | A549 > 100 µM | K562 > 100 µM | SNB-19 > 100 µM | NCI-H226 > 100 µM | MOLT-4 > 100 µM | HCC 2998 > 100 µM | RXF 393 > 100 µM | OVCAR-3 > 100 µM | RPMI-8226 > 100 µM | SK-OV-3 > 100 µM | SK-MEL-5 > 100 µM | U-251 > 100 µM

O=c1c(-c2ccccc2)c(O)nc2[nH]c3ccccc3n12
inactive: SF-539 > 100 µM | HOP-62 > 100 µM | KM12 > 100 µM | EKVX > 100 µM | M14 > 100 µM | A549 > 100 µM | K562 > 100 µM | SNB-19 > 100 µM | NCI-H226 > 100 µM | MOLT-4 > 100 µM | HCC 2998 > 100 µM | RXF 393 > 100 µM | OVCAR-3 > 100 µM | RPMI-8226 > 100 µM | SK-OV-3 > 100 µM | SK-MEL-5 > 100 µM | U-251 > 100 µM

CC1CCSC(N(C(=O)N(C)c2ccccc2)c2ccccc2)=N1 (stereo unspecified)
inactive: SF-539 > 100 µM | HOP-62 > 100 µM | KM12 > 100 µM | EKVX > 100 µM | M14 > 100 µM | A549 > 100 µM | K562 > 100 µM | SNB-19 > 100 µM | NCI-H226 74.1 µM | MOLT-4 > 100 µM | HCC 2998 > 100 µM | RXF 393 > 100 µM | OVCAR-3 > 100 µM | RPMI-8226 > 100 µM | SK-OV-3 > 100 µM | SK-MEL-5 > 100 µM | U-251 > 100 µM

COC(=O)C12C3C4C5C3(C#N)C1C5(C(=O)OC)C42C(=O)N(C(C)C)C(C)C (stereo unspecified)
inactive: SF-539 > 100 µM | HOP-62 > 100 µM | KM12 > 100 µM | EKVX > 100 µM | M14 > 100 µM | A549 > 100 µM | K562 > 49.4 µM | SNB-19 > 100 µM | NCI-H226 > 100 µM | MOLT-4 66.2 µM | HCC 2998 > 96.6 µM | RXF 393 > 100 µM | OVCAR-3 > 100 µM | RPMI-8226 > 48.6 µM | SK-OV-3 > 100 µM | SK-MEL-5 > 100 µM | U-251 > 78 µM

COC(=O)CCc1ccc2c(c1)C(=O)CC2
inactive: SF-539 > 100 µM | HOP-62 > 100 µM | EKVX > 100 µM | M14 > 100 µM | MCF7 > 100 µM | A549 > 100 µM | K562 > 100 µM | SNB-19 > 100 µM | MOLT-4 > 100 µM | NCI/ADR-RES > 100 µM | HCC 2998 > 100 µM | RXF 393 > 100 µM | OVCAR-3 > 100 µM | RPMI-8226 > 100 µM | SK-OV-3 > 100 µM | SK-MEL-5 > 100 µM | U-251 > 100 µM

CN(C)C(=S)/N=c1\ss/c(=N\C(=S)N(C)C)n1-c1ccc(Cl)c(Cl)c1
inactive: SF-539 > 100 µM | HOP-62 40.6 µM | KM12 > 100 µM | EKVX > 100 µM | M14 > 100 µM | A549 > 100 µM | K562 > 100 µM | SNB-19 > 100 µM | NCI-H226 > 100 µM | MOLT-4 > 100 µM | HCC 2998 > 100 µM | RXF 393 89.9 µM | OVCAR-3 > 100 µM | RPMI-8226 > 100 µM | SK-OV-3 > 100 µM | SK-MEL-5 > 100 µM | U-251 > 100 µM

COc1cc2c(c(OC)c1)C1(CC(CC#N)C2)SCCS1 (stereo unspecified)
inactive: SF-539 > 100 µM | HOP-62 > 100 µM | KM12 > 100 µM | M14 > 100 µM | A549 > 100 µM | K562 > 100 µM | SNB-19 > 100 µM | NCI-H226 > 100 µM | MOLT-4 > 100 µM | HCC 2998 > 100 µM | RXF 393 > 100 µM | OVCAR-3 > 100 µM | RPMI-8226 > 100 µM | SK-OV-3 > 100 µM | SK-MEL-5 62.2 µM | U-251 > 100 µM

NCCCCN(CCCN)/[N+]([O-])=N\O
inactive: SF-539 > 100 µM | HOP-62 > 100 µM | KM12 > 100 µM | M14 > 100 µM | A549 > 100 µM | K562 > 100 µM | SNB-19 > 100 µM | NCI-H226 > 100 µM | MOLT-4 > 100 µM | HCC 2998 > 100 µM | RXF 393 > 100 µM | OVCAR-3 > 100 µM | RPMI-8226 > 100 µM | SK-OV-3 > 100 µM | SK-MEL-5 > 100 µM | U-251 > 100 µM

CCN(CC)CCNc1ccc2nnn3c4ccccc4c(=O)c1c23
inactive: SF-539 6.84 µM | HOP-62 4.18 µM | KM12 4.01 µM | EKVX 4.13 µM | M14 3.86 µM | A549 3.59 µM | K562 2.97 µM | SNB-19 5.74 µM | NCI-H226 2.01 µM | MOLT-4 1.66 µM | HCC 2998 7.31 µM | RXF 393 6.21 µM | OVCAR-3 5.07 µM | RPMI-8226 2.45 µM | SK-OV-3 17.4 µM | SK-MEL-5 3.08 µM | U-251 3.27 µM
